In patent publication US20250057813A1, “APOPTOSIS RELATED PROTEIN IN THE TGF-BETA SIGNALING PATHWAY (ARTS) MIMETIC COMPOUNDS, COMPOSITIONS, METHODS AND USES THEREOF IN INDUCTION OF APOPTOSIS” (Carmel-Haifa University Economic Corporation Ltd., priority 2022, published 2025):
Peptide text beside a SMILES is read from it. * marks the point of attachment. Cbz = O=C(OCc1ccccc1)*

How the values were obtained:
[1] = system: WT MEFs and Sept4/ARTS KO MEFs cells; assay: Western blot of WT MEFs and Sept4/ARTS KO MEFs; type: cell-based, mouse; conditions: 20 or 40 μM, 24 hours
Procedure: (§1) Cells were lysed in whole-cell extract buffer [25 mM HEPES, pH 7.7, […], 1.5 mM MgCl2, 0.2 mM EDTA, 0.1% Triton X-100, 100 μg/ml phenylmethylsulfonyl fluoride (PMSF) and protease inhibitor cocktail (Roche, 1:100 dilution)] and placed on ice for 30 min (vortexing once after 15 min). After 30 minutes, the samples were centrifuged at 13,000×g for 10 minutes at 4° C. The supernatants containing total protein were measured for protein concentration using Bio-Rad Protein Assay Dye Reagent Concentrate Kit. 40 to […] was separated by sodium dodecyl sulfate-polyacrylamide gel electrophoresis (SDS-PAGE) (12% or 7.5%), followed by transfer to a nitrocellulose membrane. The membranes were blocked with 5% (w/v) non-fat dried skimmed milk powder in PBS supplemented with 0.05% Tween-20 (PBS-T) for 1 h at RT. Next, primary antibodies were added at 4° C. overnight or for 2 h at room temperature. Membranes were then incubated with secondary antibody for 1 h at RT and washed three times for 15 min each with PBS-T. Western Bright ECL (Advansta) was added to the membrane for 30-60 s and analyzed using Image Quant LAS-4000 (GE Healthcare Life Sciences) and Image Quant LAS-4000 software (GE Healthcare Life Sciences).

[2] = system: A375 human melanoma cells; assay: SDS PAGE and Western blot analysis of A375 cells; type: cell-based
Procedure: (§2) The cells were lysed in WCE (whole-cell extract) buffer [25 mM Hepes, pH 7.7, 0.3M NaCl, 1.5 mM MgCl2, 0.2 mM EDTA, 0.1% Triton X-100, 100[μg/ml PMSF and protease inhibitor cocktail (Roche, 1:100 dilution)]. 100 μg of total cell protein, measured with the Bio-Rad Protein Assay kit, were separated by SDS-PAGE (12%) followed by transfer for 2 h on to a nitrocellulose membrane. The membrane was blocked with 5% (w/v) non-fat dried skimmed milk powder in PBS supplemented with 0.05% Tween20 (PBS-T) for 1 hour at room temperature (R.T). Membrane was then probed with primary antibody at 4° C. overnight. Next, the membrane was incubated with the appropriate HRP-conjugated secondary antibody, for 1 hour at R.T. and washed 15 min ×3 with PBS-T. WesternBright ECL (Advansta) was added to the membrane for 2 min and analyzed using ImageQuant LAS-4000 analyzer (GE Healthcare Life Sciences) & “ImageQuant LAS-4000” software (GE Healthcare Life Sciences). Densitometry analysis was performed using ImageQuant total lab 7 (GE Healthcare Life Sciences), image analysis software.
as §1

[3] = system: CCRF-CEM (acute lymphoblastic leukemia) cell line; assay: Western blot analysis of CCRF-CEM; type: cell-based; parameters: cleaved PARP and cleaved Caspase 3: dose or concentration left out as unconfirmed
Procedure: as §2

HL-60 leukemia cell line = assay: Western blot analysis of HL-60; type: cell-based; conditions: 1 μM ABT199, 24 hrs
Procedure: as §2

[4] = system: Sept4/ARTS KO MEFs, shARTS HeLa, A-375, WT MEFs, WT HeLa; assay: Western blot of cell lines with different amounts of endogenous ARTS; type: cell-based; conditions: ABT-199 alone, 24 hrs
Procedure: as §2

p53-ARTS complex = assay: BiFC assay in WT MEFs (VN-p53 and VC-ARTS); type: cell-based; conditions: 200 μM Etoposide
Text: The split-Venus BiFC system was used to evaluate close proximity indicating possible direct binding between pairs of proteins. The proteins were fused either to the N-terminal part of the VenusYFP (yellow fluorescence protein) (VN) or the C-terminal domain (VC). All Venus fragments were fused to the C-terminal sequences of these proteins. The Jun and bFos pair was used as a positive control (p.c.), and the Jun and bFosdeltaZTP pair was used as a negative control (n.c.). A vector encoding dsRed was used as a transfection efficiency marker.

sept4/ARTS KO MEFs = assay: Western blot of Sept4/ARTS KO MEFs treated with proteasome inhibitor; type: cell-based, mouse; conditions: MG-132, 20 μM for 6 hours
Procedure: as §1

COC(=O)c1[nH]c2ccc(Cl)cc2c1NC(=O)CN1CCN(Cc2ccccc2)CC1 [A4, 3-[2-(4-Benzyl-piperazin-1-yl)-acetylamino]-5-chloro-1H-indole-2-carboxylic acid methyl ester]
XIAP levels [1]: downregulates | p53 levels [1]: upregulate

CC1(C)CCC(CN2CCN(c3ccc(C(=O)NS(=O)(=O)c4ccc(NCC5CCOCC5)c([N+](=O)[O-])c4)c(Oc4cnc5[nH]ccc5c4)c3)CC2)=C(c2ccc(Cl)cc2)C1 [ABT-199, 4-[4-[[2-(4-Chlorophenyl)-4,4-dimethyl-1-cyclohexen-1-yl]methyl]-1-piperazinyl]-N-[[3-nitro-4-[[(tetrahydro-2H-pyran-4-yl)methyl]amino]phenyl]sulfonyl]-2-(1H-pyrrolo[2,3-b]pyridin-5-yloxy)benzamide, reference compound]
ARTS levels ([2]; 5 μM ABT-199, 24 hrs): upregulated | apoptotic markers, cleaved PARP and cleaved Caspase 3 ([2]; 5 μM ABT-199, 24 hrs): upregulated | BCL-2 levels ([2]; 10 μM ABT-199, 24 hrs): upregulated | Bcl-2 levels ([2]; ABT-199 alone, 2, 6 and 24 hrs): upregulated | cleaved PARP and cleaved Caspase 3 ([3]; ABT-199, 24 hrs): upregulated | cleaved Caspase 3 ([3]; ABT-199 alone, 24 hrs): increased | cleaved PARP and cleaved Caspase 3 (HL-60 leukemia cell line): upregulated | ARTS levels [4]: upregulated

COc1cc([C@@H]2c3cc4c(cc3[C@@H](O[C@@H]3O[C@@H]5CO[C@@H](C)O[C@H]5[C@H](O)[C@H]3O)[C@H]3COC(=O)[C@H]23)OCO4)cc(OC)c1O [Etoposide]
formation of p53-ARTS complex (p53-ARTS complex): promotes

CC(C)C[C@@H](C=O)NC(=O)[C@H](CC(C)C)NC(=O)[C@H](CC(C)C)NC(=O)OCc1ccccc1 [MG-132] (Cbz-Leu-Leu-Leu-aldehyde)
p53 protein levels (sept4/ARTS KO MEFs): accumulation
